# US20260021064A1, “ACETAMINOPHEN AND NAPROXEN FOR TREATING PAIN” (Kenvue Brands LLC, priority 2022, published 2026)
# Read-outs that look alike come from different tables or passages of the source.
# Experiments:
# [1] = system: pain after surgical extraction of four third molars; settings: single oral dose; up to 12 hours; scale poor (0) to excellent (4)
# Method: Participant's Global Evaluation of Study Medication OR Overall Impression of Study Medication According to Participant's Global Evaluation [Time Frame: Up to 12 hours]. Participants were asked to rate their overall impression of the study medication using the following scale: poor (0), fair (1), good (2), very good (3), and excellent (4) where higher score represented better outcome.
# Participant's Global Evaluation of Study Medication OR Overall Impression of Study Medication According to Participant's Global Evaluation: Participants were asked to rate their overall impression of the study medication using the following scale: poor (0), fair (1), good (2), very good (3), and excellent (4) where higher score represented better outcome
# [2] = system: pain after surgical extraction of four third molars; settings: for PAR Score, Least Squares Mean (Standard Error): PR-NRS 0-10
# Method: 1. Time-Weighted Sum of Total Pain Relief Score From Baseline (0 Hour) to 6 Hours (TOTPAR 0-6) [Time Frame: Baseline (0 hour) up to 6 hours post-dose]. Time-weighted total pain relief (TOTPAR) was measured using a Pain Relief Numerical Rating Scale (PR-NRS) ranging from 0-10 (0=no relief, 10=complete relief). Total pain relief scores (TOTPARs) were calculated by multiplying the pain relief score at each postdose time point by the duration (in hours) since the preceding time point and then summing these values. The minimum value was 0, and the maximum value was 60. Higher scores was indicative of more pain relief.
# 2. Time-Weighted Sum of Total Pain Relief Score From Baseline (0 Hour) to 8 Hours (TOTPAR 0-8) [Time Frame: Baseline (0 hour) up to 8 hours post-dose]. TOTPAR was measured using a PR-NRS ranging from 0-10 (0=no relief, 10=complete relief). Total pain relief scores (TOTPARs) were calculated by multiplying the pain relief score at each postdose time point by the duration (in hours) since the preceding time point and then summing these values. The minimum value was 0, and the maximum value was 80. Higher scores was indicative of more pain relief.
# 3. Time-Weighted Sum of Total Pain Relief Score From Baseline (0 Hour) to 12 Hours (TOTPAR 0-12) [Time Frame: Baseline (0 hour) up to 12 hours post-dose]. TOTPAR was measured using a PR-NRS ranging from 0-10 (0=no relief, 10=complete relief). Total pain relief scores (TOTPARs) were calculated by multiplying the pain relief score at each postdose time point by the duration (in hours) since the preceding time point and then summing these values. The minimum value was 0, and the maximum value was 120. Higher scores was indicative of more pain relief.
# 5. Pain Relief (PAR) Scores at Individual Timepoints [Time Frame: 0.25 hours, 0.5 hours, 0.75 hours, 1 hours, 1.25 hours, 1.5 hours, 2 hours, 3 hours, 4 hours, 5 hours, 6 hours, 7 hours, 8 hours, 9 hours, 10 hours, 11 hours, and 12 hours]. Participants answered a question at individual time points: “how much relief do you have from your starting pain?” on a 11-point PR-NRS. Scale ranged from 0=no relief to 10=complete relief. Higher score indicated improvement in pain.
# Time-Weighted Sum of Total Pain Relief Score From Baseline (0 Hour) to 6 Hours (TOTPAR 0-6): Time-weighted total pain relief (TOTPAR) was measured using a Pain Relief Numerical Rating Scale (PR-NRS) ranging from 0-10 (0=no relief, 10=complete relief). Total pain relief scores (TOTPARs) were calculated by multiplying the pain relief score at each postdose time point by the duration (in hours) since the preceding time point and then summing these values. The minimum value was 0, and the maximum value was 60. Higher scores was indicative of more pain relief.
# Time-Weighted Sum of Total Pain Relief Score From baseline (0 Hour) to 8 Hours (TOTPAR 0-8): TOTPAR was measured using a PR-NRS ranging from 0-10 (0=no relief, 10=complete relief). Total pain relief scores (TOTPARs) were calculated by multiplying the pain relief score at each postdose time point by the duration (in hours) since the preceding time point and then summing these values. The minimum value was 0, and the maximum value was 80. Higher scores was indicative of more pain relief.
# Time-Weighted Sum of Total Pain Relief Score From Baseline (0 Hour to 12 Hours (TOTPAR 0-12): TOTPAR was measured using a PR-NRS ranging from 0-10 (0=no relief, 10=complete relief). Total pain relief scores (TOTPARs) were calculated by multiplying the pain relief score at each postdose time point by the duration (in hours) since the preceding time point and then summing these values. The minimum value was 0, and the maximum value was 120. Higher scores was indicative of more pain relief.
# Pain Relief (PAR) Scores at Timepoints: Participants answered a question at individual time points: “how much relief do you have from your starting pain?” on a 11-point PR-NRS. Scale ranged from 0-no relief to 10-complete relief.
# [3] = system: pain after surgical extraction of four third molars; settings: for PID Score, Least Squares Mean (Standard Error): PI-NRS 0-10, difference from baseline
# Method: (§1) 1. Time-Weighted Sum of Pain Intensity Difference Score From Baseline (0 Hour) to 6 Hours (SPID 0-6) [Time Frame: Baseline (0 hour) up to 6 hours post-dose]. Time-weighted sum of the pain intensity difference (SPID) score was measured using a Pain Intensity-Numerical Rating Scale (PI-NRS) ranging from 0-10 (0=no pain, 10=very severe pain). The possible range of SPID for 0-6 hours was from −60 to 60. A higher value of SPID indicated greater pain relief. PID was the difference between baseline pain intensity and pain intensity at assessment. Time-weighted sum of the pain intensity difference scores were derived by first multiplying each PID score by the time from the previous time point and adding these time-weighted PID scores together over the intervals from 0 to 6 hours.
# 2. Time-weighted Sum of Pain Intensity Difference Score From Baseline (0 Hour) to 12 Hours (SPID 0-12) [Time Frame: Baseline (0 hour) up to 12 hours post-dose]. Time-weighted sum of the pain intensity difference score was measured using a PI-NRS ranging from 0-10 (0=no pain, 10=very severe pain). The possible range of SPID for 0-12 hours was from-120 to 120. A higher value of SPID indicated greater pain relief. PID was the difference between baseline pain intensity and pain intensity at assessment (12 hours). Time-weighted sum of the pain intensity difference scores were derived by first multiplying each PID score by the time from the previous time point and adding these time-weighted PID scores together over the intervals from 0 to 12 hours.
# 4. Time-Weighted Sum of Pain Intensity Difference Score From Baseline (0 Hour) to 8 Hours (SPID 0-8) [Time Frame: Baseline (0 hour) up to 8 hours post-dose]. Time-weighted sum of the pain intensity difference score was measured using a PI-NRS ranging from 0-10 (0=no pain, 10=very severe pain). The possible range of SPID for 0-8 hours was from −80 to 80. A higher value of SPID indicated greater pain relief. PID was the difference between baseline pain intensity and pain intensity at assessment (8 hours). Time-weighted sum of the pain intensity difference scores were derived by first multiplying each PID score by the time from the previous time point and adding these time-weighted PID scores together over the intervals from 0 to 8 hours.
# 6. Pain Intensity Difference (PID) Scores at Individual Time Points [Time Frame: 0.25 hours, 0.5 hours, 0.75 hours, 1 hours, 1.25 hours, 1.5 hours, 2 hours, 3 hours, 4 hours, 5 hours, 6 hours, 7 hours, 8 hours, 9 hours, 10 hours, 11 hours, and 12 hours]. Pain Intensity was self-reported over 12 hours, using a pain rating of 0-10 on the PI-NRS, with score ranged from 0-10 (0=no pain; 10 =worst imaginable pain). Pain intensity differences were calculated with respect to baseline at each time point after study drug administration.
# as §1, with “Time-Weighted” for “1. Time-Weighted”, “0-6):” for “0-6) [Time Frame: Baseline (0 hour) up to 6 hours post-dose].”
# Time-weighted Sum of Pain Intensity Difference Score From Baseline (0 Hour) to 12 Hours (SPID 0-12): Time-weighted sum of the pain intensity difference score was measured using a PI-NRS ranging from 0-10 (0=no pain, 10=very severe pain). The possible range of SPID for 0-12 hours was from-120 to 120. A higher value of SPID indicated greater pain relief. PID was the difference between baseline pain intensity and pain intensity at assessment (12 hours).
structure (smiles),measurement,setting,value
"COc1ccc2cc([C@H](C)C(=O)O)ccc2c1 [Arm 2: Naproxen Sodium 440 mg, naproxen sodium]","Participant's Global Evaluation of Study Medication, Least Squares Mean (Standard Error)",[1],2.7 (0.13)
same,"PAR Score, Least Squares Mean (Standard Error)",[2]; 0.25 Hours post-dose,0.80 (0.18)
same,"PAR Score, Least Squares Mean (Standard Error)",[2]; 0.5 Hours post-dose,2.27 (0.31)
same,"PAR Score, Least Squares Mean (Standard Error)",[2]; 0.75 Hours post-dose,4.11 (0.35)
same,"PAR Score, Least Squares Mean (Standard Error)",[2]; 1 Hours post-dose,5.29 (0.35)
same,"PAR Score, Least Squares Mean (Standard Error)",[2]; 1.25 Hours post-dose,5.99 (0.35)
same,"PAR Score, Least Squares Mean (Standard Error)",[2]; 1.5 Hours post-dose,6.36 (0.34)
same,"PAR Score, Least Squares Mean (Standard Error)",[2]; 2 Hours post-dose,6.62 (0.34)
same,"PAR Score, Least Squares Mean (Standard Error)",[2]; 3 Hours post-dose,6.52 (0.35)
same,"PAR Score, Least Squares Mean (Standard Error)",[2]; 4 Hours post-dose,1.46 (0.36)
same,"PAR Score, Least Squares Mean (Standard Error)",[2]; 5 Hours post-dose,6.45 (0.37)
same,"PAR Score, Least Squares Mean (Standard Error)",[2]; 6 Hours post-dose,6.26 (0.38)
same,"PAR Score, Least Squares Mean (Standard Error)",[2]; 8 Hours post-dose,5.95 (0.39)
same,"PAR Score, Least Squares Mean (Standard Error)",[2]; 9 Hours post-dose,5.73 (0.40)
same,"PAR Score, Least Squares Mean (Standard Error)",[2]; 10 Hours post-dose,5.71 (0.42)
same,"PAR Score, Least Squares Mean (Standard Error)",[2]; 11 Hours post-dose,5.71 (0.43)
same,"PAR Score, Least Squares Mean (Standard Error)",[2]; 12 Hours post-dose,5.62 (0.44)
same,"Time-Weighted Sum of Total Pain Relief Score From Baseline (0 Hour) to 6 Hours (TOTPAR 0-6), Least Squares Mean (Standard Error)","[2]; single oral dose, range 0 to 60, higher = more pain relief",35.20 (1.848)
same,"Time-Weighted Sum of Total Pain Relief Score From baseline (0 Hour) to 8 Hours (TOTPAR 0-8), Least Squares Mean (Standard Error)","[2]; single oral dose, range 0 to 80, higher = more pain relief",47.19
same,"Time-Weighted Sum of Total Pain Relief Score From Baseline (0 Hour to 12 Hours (TOTPAR 0-12), Least Squares Mean (Standard Error))","[2]; single oral dose, range 0 to 120, higher = more pain relief",69.96
same,"PID Score, Least Squares Mean (Standard Error)",[3]; 0.25 Hours post-dose,0.58 (0.15)
same,"PID Score, Least Squares Mean (Standard Error)",[3]; 0.5 Hours post-dose,1.82 (0.24)
same,"PID Score, Least Squares Mean (Standard Error)",[3]; 0.75 Hours post-dose,3.15 (0.27)
same,"PID Score, Least Squares Mean (Standard Error)",[3]; 1 Hours post-dose,3.97 (0.28)
same,"PID Score, Least Squares Mean (Standard Error)",[3]; 1.25 Hours post-dose,4.50 (0.28)
same,"PID Score, Least Squares Mean (Standard Error)",[3]; 1.5 Hours post-dose,4.72 (0.28)
same,"PID Score, Least Squares Mean (Standard Error)",[3]; 2 Hours post-dose,4.87 (0.28)
same,"PID Score, Least Squares Mean (Standard Error)",[3]; 3 Hours post-dose,4.75 (0.30)
same,"PID Score, Least Squares Mean (Standard Error)",[3]; 4 Hours post-dose,4.63 (0.31)
same,"PID Score, Least Squares Mean (Standard Error)",[3]; 5 Hours post-dose,4.59 (0.32)
same,"PID Score, Least Squares Mean (Standard Error)",[3]; 6 Hours post-dose,4.50 (0.32)
same,"PID Score, Least Squares Mean (Standard Error)",[3]; 7 Hours post-dose,4.36 (0.32)
same,"PID Score, Least Squares Mean (Standard Error)",[3]; 9 Hours post-dose,4.04 (0.33)
same,"PID Score, Least Squares Mean (Standard Error)",[3]; 10 Hours post-dose,4.01 (0.35)
same,"PID Score, Least Squares Mean (Standard Error)",[3]; 11 Hours post-dose,3.99 (0.35)
same,"PID Score, Least Squares Mean (Standard Error)",[3]; 12 Hours post-dose,3.91 (0.36)
same,"Time-Weighted Sum of Pain Intensity Difference Score From Baseline (0 Hour) to 6 Hours (SPID 0-6), Least Squares Mean (Standard Error)","[3]; single oral dose, possible range -60 to 60, higher = greater pain relief",25.59 (1.562)
same,"Time-Weighted Sum of Pain Intensity Difference Score From Baseline (0 Hour) to 8 Hours (SPID 0-8), Least Squares Mean (Standard Error)","[3]; single oral dose, possible range -80 to 80, higher = greater pain relief",34.11
same,"Time-weighted Sum of Pain Intensity Difference Score From Baseline (0 Hour) to 12 Hours (SPID 0-12), Least Squares Mean (Standard Error)","[3]; single oral dose, possible range -120 to 120, higher = greater pain relief",50.07 (3.341)
